Experimental data as given in patent US20240423933A1, “DRUGS FOR TREATING NEURODEVELOPMENTAL DISORDERS” (President and Fellows of Harvard College, priority 2021, published 2024).
Entries after “also recorded” stand apart in the source; their conditions may differ. Where a SMILES comes first, the peptide text is derived from it. [ ]: non-standard residue; d: D form. αMeP = C[C@@]1(C(=O)O)CCCN1

Experiments:
[1] = test system: MeCP2 knockdown Xenopus laevis tadpoles; assay: Seizure Score in MeCP2 knockdown tadpoles; format: in vivo; settings: MeCP2 knockdown tadpoles treated Day 1 to Day 6, relative to vehicle
From the text: Seizure Score data for wild-type and MeCP2 knockdown was collected for Xenopus laevis tadpoles treated with drug (trofinetide or vorinostat) or vehicle from Day 1 to Day 6, after which they were placed back in medium.

[2] = test system: MeCP2 knockdown Xenopus laevis tadpoles; assay: Tadpole viability in the MeCP2 knockdown model; format: in vivo; settings: for animals survived until Day 10: MeCP2 knockdown tadpoles, no vehicle-treated animal survived beyond Day 6; for tadpole viability: MeCP2 knockdown model, FIGS. 6A-6B
From the text: 100% of MeCP2 knockdown animals treated with vorinostat survived until Day 10; over 50% of MeCP2 knockdown animals treated with trofinetide survived until Day 10. Conversely, none of the MeCP2 knockdown animals treated with vehicle survived beyond Day 6.

[3] = test system: MeCP2-knockdown (MeCP2-/Y) mice; assay: MeCP2 knockdown mouse study, treatment after onset of symptoms (oral vorinostat); format: in vivo; settings: for survival after 3 weeks of treatment: MeCP2-knockdown animals; for colocalization of acetylated a-tubulin with neuronal staining in the colon: bIII- and acetylated alpha-tubulin staining; for colon vacuolization and neutrophil infiltrate (histology): colon sections of MeCP2-knockdown animals; for overall mobility scores (mobility, gait, hindlimb clasping) / diarrhea scores: relative to vehicle-treated MeCP2-knockdown animals; for overall mobility scores (mobility, gait, hindlimb clasping): FIG. 9B; for diarrhea scores: FIG. 9C
Description: Mice were treated with either trofinetide or vorinostat, and change in animal weight (g) and Cumulative Severity Score were assessed.
MeCP2-knockdown (MeCP2-/Y) mice were dosed approximately one week after the onset of symptoms with an oral formulation of vorinostat.
Additionally, the overall mobility scores (based on mobility, gait, and hindlimb clasping) and the diarrhea scores were improved for MeCP2-knockdown animals treated with vorinostat and trofinetide, relative to vehicle-treated MeCP2-knockdown animals (FIG. 9B and 9C, respectively). […] There was also an overall increase of hyperacetylated a-tubulin in bronchioles of MeCP2-Vy animals that vorinostat restored (FIG. 9E). Finally, vorinostat treatment rescued the disrupted a-tubulin acetylation observed in femoral muscle sections (FIG. 9F).
Initial histological analysis of the colon indicated a greater degree of vacuolization and heightened neutrophil infiltrate in MeCP2-knockdown animals, which vorinostat and trofinetide reversed. […] Vorinostat also normalized the ratio of acetylated alpha-tubulin to bIII-tubulin (FIG. 9G).

[4] = test system: MeCP2 knockdown Xenopus laevis tadpoles; assay: alpha-tubulin acetylation and cilia in tissues of MeCP2 knockdown tadpoles; format: in vivo
Description: Xenopus laevis tadpoles having an MeCP2 knockdown were generated using CRISPR-Cas9 technology. Xenopus embryos were fertilized and maintained at 14° C. until the 4-cell stage. Each cell was injected with ˜2 nL ribonucleoprotein (a mixture of sgRNAs targeting the MeCP2 gene and Cas9 enzyme). No adverse effects to development were observed, as all embryos developed to the swimming tadpole stages (Nieuwkoop-Faber stages 45-50) with no apparent loss of viability or morphological defect.
Specifically, tadpole tissues were assessed for alpha-tubulin acetylation and bidirectional shifts in acetylation patterns were observed depending on the tissue type.

[5] = test system: MeCP2 knockdown Xenopus laevis; assay: Tongue thickness and GI tract ib4+ staining in MeCP2 knockdown tadpoles; format: in vivo
From the text: Treatment with vorinostat in Xenopus laevis also had impacts on GI tract inflammation and nociceptive innervation. The role of MeCP2 knockdown in GI tract inflammation and nociceptive innervation by staining for isolectin B4-positive (ib4+) cells.

[6] = test system: MeCP2-knockdown (MeCP2−/Y) mice; assay: MeCP2 knockdown mouse study, daily i.p. treatment from p31; format: in vivo; settings: vorinostat 50 mg/kg i.p. daily, relative to vehicle-treated MeCP2-knockdown mice
Description: Wild-type and MeCP2-knockdown (MeCP2^−/Y) mice (a Rett mouse model) were treated starting at day 31 post-partum (p31) via daily intraperitoneal (i.p.) administration of trofinetide (100 mg/kg) or vorinostat (50 mg/kg) until day 51 of age (FIG. 7A). Behavorial assays were performed at days 35-39 and days 49-53, before sacrificing the mice and harvesting organs at day 54.

[7] = test system: Naïve C57BL6 mice; assay: Elevated Plus Maze test; format: in vivo, mouse; settings: FIGS. 11A-11B

Compound: C[C@@]1(C(=O)N[C@@H](CCC(=O)O)C(=O)O)CCCN1C(=O)CN [trofinetide, (2S)-2-[[(2S)-1-(2-aminoacetyl)-2-methylpyrrolidine-2-carbonyl]amino]pentanedioic acid] (H-Gly-[αMeP]-Glu-OH)
- seizures (Seizure Score) [1]: reduced seizures
- animals survived until Day 10 [2]: over 50%
- survival after 3 weeks of treatment [3]: about 60%
- colocalization of acetylated a-tubulin with neuronal staining in the colon [3]: normalized
- colon vacuolization and neutrophil infiltrate (histology) [3]: reversed
- overall mobility scores (mobility, gait, hindlimb clasping) [3]: improved
- diarrhea scores [3]: improved

Compound: O=C(CCCCCCC(=O)Nc1ccccc1)NO [vorinostat, N′-hydroxy-N-phenyloctanediamide]
- a-tubulin hyperacetylation in the GI tract ([4]; FIG. 2C): reversed that hyperacetylation
- hyper-acetylation in olfactory multi-ciliated cells ([4]; microtubules and alpha-tubulin): reverses hyper-acetylation
- effects related to microtubules and cilia length ([4]; nostril multiciliated cells, FIGS. 2A-2B): reversed those effects
- tongue thickness ([5]; MeCP2 knockdown animals, FIG. 3A): restored normal tongue thickness; also recorded: restores normal tongue vertical thickness
- ib4+ expression in the GI tract ([5]; MeCP2 knockdown tadpoles, isolectin B4 staining, FIG. 3B): reversed that ib4+ expression; also recorded: restores normal ib4+ expression
- seizures (Seizure Score) [1]: reduced seizures
- tadpole viability [2]: improves Xenopus laevis tadpole viability
- tadpole viability ([2]; listed as Vorinostat): improve Xenopus laevis tadpole viability
- animals survived until Day 10 [2]: 100%
- neurological function (elevated plus maze and spatial novelty Y-maze performance) ([6]; FIG. 7D): improved neurological function
- diarrhea score ([6]; FIG. 7E): improved diarrhea score
- hyperacetylated a-tubulin in bronchioles ([3]; FIG. 9E): restored
- a-tubulin acetylation in femoral muscle sections ([3]; FIG. 9F): rescued
- survival after 3 weeks of treatment [3]: 100%
- colocalization of acetylated a-tubulin with neuronal staining in the colon [3]: normalized
- colon vacuolization and neutrophil infiltrate (histology) [3]: reversed
- ratio of acetylated alpha-tubulin to bIII-tubulin ([3]; colon, FIG. 9G): normalized
- breathing (score) ([3]; compared to trofinetide and vehicle treatments, FIG. 9D): significantly improved
- performance in EPM and Y mazes ([3]; oral vorinostat 50 mg/kg): increased performance
- weight gain ([3]; oral vorinostat 50 mg/kg): ameliorated weight gain
- Cumulative Severity Score / symptom severity score ([3]; oral vorinostat 50 mg/kg, mice treated at 35 days of age after onset of severe symptoms, FIG. 9A): more effective than trofinetide; also recorded: prevented significant worsening
- overall mobility scores (mobility, gait, hindlimb clasping) [3]: improved
- diarrhea scores [3]: improved
- behavior in anxiety, activity and novelty seeking [7]: restored behavior in anxiety, activity and novelty seeking; also recorded: restores naïve C57BL6 behavior
